Source: US20050234113A1, “Antioxidant and radical scavenging activity of synthetic analogs of desferrithiocin” (University of Florida Research Foundation, Inc., priority 2002, published 2005)
Marks after values point to notes of the source that are not given here.

Key:
[1] = Quenching of the ABTS radical cation; details: Table 5; 6-min reaction, initial OD 1.000
[2] = Prevention of iron-mediated oxidation of ascorbate (ascorbate-mediated reduction of Fe(III)); details: ascorbate 100 μM, FeCl3 30 μM, pH 7.4, ligand/Fe ratios 0-3, 40 min
Method: (§1) The iron chelators were tested for their ability to diminish the iron-mediated oxidation of ascorbate by the method of Dean and Nicholson (Free Radical Res. 20, 83-101 (1994)). Briefly, a solution of freshly prepared ascorbate (100 μM) in sodium phosphate buffer (5 mM, pH 7.4) was incubated in the presence of FeCl3 (30 μM) and chelator (ligand/Fe ratios varied from 0-3) for 40 min. The A265 was read at 10 and 40 min; the ΔA265 in the presence of ligand was compared to that in its absence.
The role of chelators in either inhibition or promotion of the Fenton reaction is related to their capacity to prevent Fe(III) from being reduced to Fe(II). Fe(II) is required for the reduction of H2O2 to HO. and HO^−. The assay involves spectrophotometrically monitoring the disappearance of ascorbate at pH 7.4 in the presence of FeCl3 and chelator at several ligand/Fe ratios. Under these conditions, ascorbate is oxidized to an L-ascorbyl radical anion. This anion then disproportionates to dehydroascorbic acid and ascorbate.
as §1, with “chelators nitrilotriacetic acid (NTA), 1,2-dimethyl-3-hydroxypyridin-4-one (L1), desferrioxamine B (DFO), (S)-4′-(HO)-DADMDFT, and (S,S)-1,11-Bis[5-(4-carboxyl-4,5-dihydro-1,3-thiazol-2-yl)-2,4-dihydroxyphenyl]-4,8-dioxaundecane (BDU)” for “chelators”, “Nicholson, Free” for “Nicholson (Free”, “20:” for “20,”, “(1994).” for “(1994)).”
The measurement examines the disappearance of ascorbate. It is known that DFO, a hydroxamate chelator that forms a 1:1 complex with Fe(III) at a formation constant of approximately 10^31 M^−1, prevents ascorbate-mediated reduction of Fe(III); it serves as a positive control in the present study. Both NTA and L1 promote ascorbate-mediated reduction of Fe(III) and serve as negative controls.

[3] = Quenching of the ABTS radical cation; details: for radical trapping compared with Trolox (in words): method of Example 6
Method: The iron chelators were tested for their ability to quench the radical cation formed from 2,2′-azinobis(3-ethylbenzothiazoline-6-sulfonic acid) (ABTS) by the method of Re et al. in Free Radic. Biol. Med. 26, 1231-1237 (1999). Briefly, a stock solution of ABTS radical cation was generated by mixing ABTS (10 mM, 2.10 mL) with K2S2O8 (8.17 mM, 0.90 mL) in H2O and […] deep blue-green ABTS radical cation was diluted in sufficient sodium phosphate (10 mM, pH 7.4) to give an A734 of about 0.900. Test compounds were added to a final concentration ranging from 1.25 to 15 μM, and the decrease in A734 was read after 1, 2, 4 and 6 min. The reaction was largely complete by 1 min, but the data presented are based on a 6-min reaction time.
In this assay, a fairly stable radical cation, ABTS^+, was examined, and Trolox, an analog of vitamin E, was used as a positive control. Briefly, the procedure involved generating the blue-green chromophore by the reaction of ABTS with K2S2O8. The radical has absorption maxima at λ=415, 645, 734, and 815 nm. The change in absorbance at 734 nm was noted 6 min after addition of the chelator of interest at various concentrations, and the slope of the ΔA734 vs. ligand concentration line was calculated.
The iron chelators were tested for their ability to quench the radical cation formed from 2,2′-azinobis(3-ethylbenzothiazoline-6-sulfonic acid) (ABTS) by a published method (Re, R., et al., Free Radical Biol. Med. 26:1231-1237 (1999). Briefly, a stock solution of ABTS radical cation was generated by mixing ABTS (10 mM, 2.10 mL) with K2S2O8 (8.17 mM, 0.90 mL) in H2O and allowing the solution to sit in the dark at room temperature for 18 hours. This stock solution of deep blue-green ABTS radical cation was diluted in sufficient sodium phosphate (10 mM, pH 7.4) to give an A734 of about 0.900. Test compounds were added to a final concentration ranging from 1.25 to 15 μM, and the decrease in A734 was read after 1, 2, 4 and 6 min. The reaction was largely complete by 1 min, but the data presented are based on a 6-min. reaction time.
This radical cation decolorization assay utilizes the pre-formed radical monocation of 2,2′-azinobis(3-ethylbenzothiazoline-6-sulfonic acid) (ABTS) and has been used to evaluate the antioxidant capacity of a large number of compounds and mixtures. Briefly, the change in absorbance of the blue-green chromophore was recorded after the addition of the chelator of interest at each of the different concentrations, and the slope of the ΔA734 vs. ligand concentration line was calculated. The positive control for this reaction was Trolox, an analogue of vitamin E. The decrease in A734 as a function of ligand concentration is the comparitor among the five compounds evaluated. Trolox, L1, DFO, (S)-4′-(HO)-DADMDFT and BDU (Table 3). All four of the iron chelators performed better than Trolox; DFO≈BDU>(S)-4′-(HO)-DADMDFT>L1>Trolox. Thus, all of these ligands could be expected to serve as excellent radical scavengers.

[4] = test system: Myeloperoxidase (MPO) activity in colonic tissue; test: Myeloperoxidase (MPO) assay in colonic tissue of rats with acetic acid-induced colitis; type: in vivo; details: 650 μmol kg^−1 intracolonically 30 min before 4% acetic acid, mean ± standard deviation
Method: (§2) The ligands were administered to the rats intracolonically as a suspension or solution in distilled water (2 mL) at a dose of 650 μmol kg^−1. The drug solutions were made fresh for each experiment. ROWASA®, the pharmaceutical preparation which contains 5-ASA (2 mL, 66.7 mg mL^−1) was given at a dose of 2318 μmol kg^−1. Control rats received distilled water (2 mL), administered intracolonically.
(§3) Animal care and experimental procedures were approved by the Institutional Animal Care and Use Committee. Colitis was induced by a modification of published methods. Briefly, the rats were anesthetized with sodium pentobarbital, 55 mg kg^−1 intraperitoneally. The abdomen was shaved and prepared for surgery. A midline incision was made, and the cecum and proximal colon were exteriorized. A reversible suture was placed at the junction of the cecum and proximal colon. The colon was rinsed with saline (10 mL), and the fluid and intestinal contents were gently expressed out the rectum. A gum-based rectal plug was inserted. The compound of interest, or distilled water in the control animals (2 mL), was injected intracolonically just distal to the ligature. The cecum and proximal colon were returned to the abdominal cavity; the compound was allowed to remain in the gut for 30 min. Then, the cecum and proximal colon were reexteriorized. The rectal plug was removed, and the drug was gently expressed out of the colon. Acetic acid (4%, 2 mL) was injected into the proximal colon over a 15-20-second time period. The acid was allowed to remain in the gut until one minute had passed (i.e., 40-45 seconds after the end of the acid administration). The no acid control rats received distilled water (2 mL), which was administered in the same manner as was the acetic acid. Air (10 mL) was then injected into the proximal colon to expel the acid or water. The cecal/proximal colon ligature was removed, the gut was returned to the abdominal cavity, and the incisions were closed. The animals were allowed to recover overnight and were sacrificed 24 hr later. The entire length of the colon was removed and assessed for damage both densitometrically and biochemically.
The activity of MPO was measured in colonic tissue by a modification of the method of Krawisz et al. in Gastroenterology 87, 1344-1350 (1984). Each excised colon was homogenized in 9 volumes of homogenization buffer (0.5% hexadecyltrimethylammonium bromide (HDTMA) in 50 mM sodium acetate, pH 6.0); this homogenate was centrifuged at 1200 g for 20 min at 4° C. A sample of the supernatant (1.8 mL) was transferred into a microcentrifuge tube and stored frozen at −20° C. for up to one week. Prior to assay, the thawed aliquot was centrifuged at about 10,000 g for 15 minutes at 4° C. The final supernatant (33 μL) was added to a solution of o-dianisidine HCl (0.17 mg mL^−1 in 50 mM sodium acetate, pH 6.0, made fresh daily and filtered immediately before use) (950 μL), the mixture was vortexed, and the peroxidase reaction was initiated by the addition of H2O2 to 50 mM sodium acetate, pH 6.0, made fresh daily (16.7 μL). The A470 at room temperature (ca. 23° C.) was read at 15-second intervals for 2 min. The rates were assessed graphically and are presented as change in milliabsorbance units (ΔmAU)/min per g tissue. Under these conditions, 0.1 “Unit” of purified human leukocyte myeloperoxidase (Sigma M-6908) produced a ΔA470 of about 400 mAU/min.
The biochemical measurement involves measuring the level of MPO in a sample of homogenate of the whole rat colon. When the colon is damaged by the acetic acid, there is an extravasation of neutrophils. The extent of this infiltration can serve as a quantitative marker for tissue damage. Although other leukocytes, such as eosinophils and monocytes, also contribute to the inflammatory response, their contribution is small; the majority of the cells recruited during the acute inflammatory response are neutrophils. […]

[5] = test system: acetic acid-induced colitis; test: Acetic acid-induced colitis in rats, densitometric image analysis of colonic damage; type: in vivo; details: for Damage (%): 650 μmol kg^−1 intracolonically 30 min before 4% acetic acid, mean ± standard deviation; for protection against acetic acid-induced colonic damage (in words): intracolonic, image analysis and MPO assay
Method: as §2, §3
Gross damage was quantitated using Photoshop-based image analysis (version 5.0, Adobe Systems, Mountain View, Calif., USA) on an Apple iMac computer. The Magic Wand tool in the Select menu of Photoshop was used to place the cursor on an area of obvious damage. The tolerance level of the Magic Wand tool was set at 30. The damaged areas were automatically selected by using the Similar command in the Select menu. Then, the Eyedropper tool was used to determine the range of the damage in the highlighted areas. Individual colon images were copied to a blank Photoshop page. The Magic Wand tool, with a tolerance set to 100, was used to select all of the pixels in the colon sample. Then, the Histogram tool, which generates a graph in which each vertical line represents the number of pixels associated with a brightness level, was selected in the Image menu. The Red channel was then selected; the darker (damaged areas) appear on the left side of the histogram and the lighter (normal) areas are on the right side. The cursor was then placed on the histogram, the color range determined in an earlier step was selected, and the number of pixels encompassing that range and the percent damage were quantified automatically.
Two means were employed to assess the damage to the colon in the presence and absence of ligand, computer-based image analysis and colonic MPO measurement. The densitometric method removes much of the subjectivity involved in the simple scoring approaches. A digital image of the prepared colonic tissue is taken, and a clearly damaged segment is highlighted on the screen. Once the computer identifies all other segments of the intestine with the same or greater damage, a pixel number is generated; this number makes it possible to calculate the percentage of damaged intestine.

[6] = Table 1, A734, six-minute reaction, pH 7.4, 1.25 to 15 μM

SMILES | Slope × 10^3 OD units/μM (ABTS radical cation quenching) [1] | effect on ascorbate-mediated reduction of Fe(III) (in words) [2] | radical trapping compared with Trolox (in words) [3] | MPO activity [4] | Damage (%) [5] | protection against acetic acid-induced colonic damage (in words) [5] | Slope × 10^3 OD units/μM (ABTS radical cation quenching) [3, 6] | Slope × 10^3 OD units/μM (ABTS radical cation quenching) ([3]; Table 3, A734, 6-min reaction, values marked b are the inventors' unpublished results)
COc1ccc(C2=NC(C)(C(=O)O)CS2)c(O)c1 (centres unmarked) [4′-(CH3O)-DADFT, 4′-methoxydesazadesferrithiocin] | −36 × 10^3 OD units/μM | slowed Fe(III) reduction considerably | as effective as Trolox | – | – | – | – | –
COc1ccc(C2=N[C@@H](C(=O)O)CS2)c(O)c1 [4′-(CH3O)-DADMDFT, 4′-methoxydesazadesmethyldesferrithiocin] | −33 × 10^3 OD units/μM | slowed Fe(III) reduction considerably | as effective as Trolox | – | – | – | – | –
CN(O)C(=O)[C@@]1(C)CSC(c2ccc(O)cc2O)=N1 [4′-(HO)-DADFT-NMH] | – | – | – | 41021 ± 35525 mAU min^−1g of colonic tissue^−1 | 46 ± 23% | moderately effective | −141.4 × 10^3 OD units/μM | –
CN(O)C(=O)[C@H]1CSC(c2ccc(O)cc2O)=N1 [4′-(HO)-DADMDFT-NMH] | – | – | – | 18426 ± 20930 mAU min^−1g of colonic tissue^−1 | 39 ± 11% | – | −135.5 × 10^3 OD units/μM | –
O=C(O)C1CSC(c2ncccc2O)=N1 (centres unmarked) [DMDFT, desmethyldesferrithiocin] | – | – | – | 39229 ± 27109 mAU min^−1g of colonic tissue^−1 | 61 ± 15% | – | −1.3 × 10^3 OD units/μM | –
CN(O)C(=O)C1CSC(c2ncccc2O)=N1 (centres unmarked) [DMDFT-NMH, desmethyldesferrithiocin-N-methyl-hydroxamate] | – | – | – | 14406 ± 8683 mAU min^−1g of colonic tissue^−1 | 22 ± 17% | most effective | −47.4 × 10^3 OD units/μM | –
Cc1ccc(O)c(C2=NC(C(=O)O)CC2)c1 (centres unmarked) [PCA, 3,4-dihydro-5-(2-hydroxy-5-methylphenyl)-2H-pyrrole-2-carboxylic acid] | – | – | – | 29942 ± 11255 mAU min^−1g of colonic tissue^−1 | 44 ± 11% | – | −3.3 × 10^3 OD units/μM | –
Cc1c(C)c2c(c(C)c1O)CCC(C)(C(=O)O)O2 (centres unmarked) [Trolox, reference compound] | −37 × 10^3 OD units/μM | – | – | – | – | – | −36.6 × 10^3 OD units/μM | −37^b × 10^3 OD units/μM
